Measurements: patent US11219603B2, “Stable dosage form of etidronate-cytarabine conjugate, and use thereof” (MAXWELL BIOTECH GROUP LTD., priority 2015, dated 2022)

Experiment: Compatibility with media for intravenous administration (Ara-CMP increase)
Assay type: physicochemical
Details: 25 mg/mL MBC-11, MgCl2:MBC-11 2:1, dextran 5%, diluted to 1 mg/mL in D5W; within one day

CC(O)(P(=O)(O)O)P(=O)(O)OP(=O)(O)OC[C@H]1O[C@@H](n2ccc(N)nc2=O)[C@@H](O)[C@@H]1O (stereo partly shown) [MBC-11]
increase in Ara-CMP content: 1%
